Measured values from patent US12516104B2, “Compositions and methods for diagnosis and treatment of cancer” (BioNTech SE, priority 2018, dated 2026).
Ends that are not written are not given here.

Experiments:
[1] = test system: U-87 MG tumor tissues; assay: Immunofluorescence staining of U-87 MG xenograft tumor sections; assay type: binding, human; settings: biotinylated miniprotein tetramerized with Cy3-labeled streptavidin; CD31 co-staining
Description: FIG. 8: Specific binding of MC-FN-010 to glioblastoma xenograft tumor sections. Representative results of immunofluorescence staining of U-87 MG tumor tissues with EDB ligand MC-FN-010 and negative control MC-FN-0115. The tissue sections (5 μm) were stained with tetramerized cystine-knot miniprotein-biotin strepatividin-Cy3 complex (red) and with an anti-CD31 antibody to visualize vasculature (green). Scale bars indicate 100 μm.
FIG. 13: Specific binding of MC-FN-010 to tissue sections derived from the human U-87 MG glioblastoma cell line grown as mouse xenograft tumor. […] Tissue sections (6 μm) were stained with Alexa Fluor 680 conjugated trimeric cystine-knot miniproteins and an anti-CD31 antibody detected with a secondary antibody to visualize vasculature. […]
(§1) For immunofluorescence staining cryopreserved tumor or brain pieces were cut in five micron thick sections, fixed in ice cold acetone for 5 min and air-dried. […] Images were captured with a Zeiss Apotome microscope (Carl Zeiss) and analyzed with ZEN software (Carl Zeiss).
(§2) Cryopreserved tumor or brain pieces were cut in six micron thick sections, fixed in l ice cold acetone for 5 min and air-dried. […] CD31 staining of primary anti-mouse CD31 antibody was detected with a secondary anti-rabbit IgG-Cy3 antibody (111-165-003, Jackson ImmunoResearch) diluted 1:400 in PBS with 1% BSA for 30 min at 37° C. […]

[2] = test system: normal mouse brain; assay: Immunofluorescence staining of normal mouse brain sections; assay type: binding; settings: biotinylated miniprotein tetramerized with Cy3-labeled streptavidin
Description: FIG. 12: Representative immunofluorescence staining of normal mouse brain with EDB ligand MC-FN-010 and negative control MC-FN-0115. Tissue sections (6 μm) were stained with tetramerized cystine-knot miniprotein-biotin/strepatividin-Cy3 complex and an anti-CD31 antibody to visualize vasculature. Scale bars, 100 μm.
FIG. 13: Specific binding of MC-FN-010 to tissue sections derived from the human U-87 MG glioblastoma cell line grown as mouse xenograft tumor. Representative immunofluorescence staining of U-87 MG tumor tissues (A) and normal mouse brain (B) with trimeric MC-FN-010 and negative control MC-FN-0115. Tissue sections (6 μm) were stained with Alexa Fluor 680 conjugated trimeric cystine-knot miniproteins and an anti-CD31 antibody detected with a secondary antibody to visualize vasculature. […]
as §1, §2

[3] = molecular target: T1, FN-6789 (Homo sapiens, UniProt P02751); assay: ELISA specificity: binding of Trx-cystine-knot miniproteins to off-target FN-6789 and control proteins; settings: for off-target and control protein signals: 200 nM Trx-fusion, FN-6789, milk powder, streptavidin, bovine serum albumin
T1 construct: type III domains 6-9 without EDB (FN-6789); made in house; host or cells: E. coli BL21 (DE3), pET-21a
Description: FIG. 4: Specificity analysis of Trx-cystine-knot miniprotein clones MCopt 1.0-1/-2/-3 and MCopt 2.0-1/-2/-3. 200 nM of each variant were applied to immobilized FN-B and FN-67B89 target proteins as well as to control proteins FN-6789, milk powder and bovine serum albumin (coated at 1 μg/well). An HRP-conjugated anti-s-tag antibody was used to analyze binding. ELISA was performed in duplicates with Trx-MC-Myc-010 serving as negative control.
FIG. 5: Extended specificity analysis of Trx-cystine-knot miniprotein clones MCopt 1.0-2/-3 and MCopt 2.0-1/-2/3. In total 200 nM of each variant were applied to FN-B, T7-TEV-B, FN-67B89 and FN-B(8-14) target proteins as well as negative controls FN-6789, milk powder, bovine serum albumin, lysozyme, ovalbumin and aldolase (coated at 1 μg/well). ELISA was performed in duplicates, error bars represent standard deviation and Trx-MC-Myc-010 served as negative cystine-knot miniprotein control.
FIG. 6: Saturation-binding curves of MCopt 1.0-2/-3 and MCopt 2.0-1/-2/-3 EDB binding. Trx-cystine-knot miniprotein binding was assayed against FN-B, FN-67B89 and FN-B(8-14) targets as well as against FN-6789 control protein (coated at 1 μg/well) in ten different concentrations. Binding of Trx-cystine-knot miniproteins was detected with an HRP-conjugated anti-s-tag-antibody. ELISAs were performed in duplicates (single values for FN-B(8-14)). A: from top to bottom SEQ ID NOs: 7, 8, and 12; and B: from top to bottom SEQ ID NOs: 11, 8, and 29.
FIG. 9: A: Specificity analysis of Trx-MC-FN-010 to human FN-67B89 and FN-6789 using ELISA. B: Specificity analysis of Trx-MC-FN-016 to human FN-67B89 and FN-6789 using ELISA. Binding of Trx-MC-FN-010 and Trx-MC-FN-016 to FN-67B89 with concentrations ranging from 1.56-50 nM in comparison to FN-6789 was detected with 50 ng of HRP-conjugated anti-S-tag-antibody. ELISA was performed in duplicates using 1 μg coated FN-67B89 or FN-6789 per well.
ELISA was used as technique to analyze protein-protein interactions. Cavities of 96-well microtiter plates (Nunc MaxiSorp™, Thermo Fisher Scientific) were coated with 1 μg FN-B, bovine serum albumin (BSA, Eurobio), milk powder, streptavidin (Sigma Aldrich), T7-His-TEV-B (LD BioPharma), FN-B(8-14) (R&D Systems), lysozyme, ovalbumin (GE Healthcare Life Science), aldolase (GE Healthcare Life Science) or 0.6 μg anti-c-myc-antibody (M4439, Sigma) overnight at 4° C. The wells were washed three times with PBS-T (1×PBS with 0.1% (w/v) Tween-20), blocked with 1× Casein buffer (Sigma Aldrich) diluted in PBS for 2 h at RT and washed again as described. 20 μL of supernatant containing the respective heat-purified fusion protein was added to 80 μL PBS-T or 200 nM of MC-Myc-010 fusion protein (wells with anti-c-myc-antibody) diluted in PBS-T, applied to the cavities and incubated for 1 h at 4° C. After three times of washing with PBS-T, binding of the respective variant was detected with a horseradish peroxidase (HRP)-conjugated anti-S-tag antibody (ab18589 or ab19324, Abcam). Enzymatic reaction was measured with TMB as a chromogenic substrate and stopped with 0.2 M HCl after approximately 5 min. The measurement of absorbance at 450 nm was performed using an Infinite M200 PRO Microplate Reader (Tecan).

[4] = molecular target: T2, FN-67B89 (Homo sapiens, UniProt P02751); assay: Surface plasmon resonance spectroscopy on immobilized biotinylated FN-67B89; assay type: binding; settings: for off-rates / binding affinity towards biotinylated FN-67B89: tag-free monomer; for binding affinity towards biotinylated FN-67B89: multi cycle kinetic, 1:1 Langmuir
T2 construct: FN-67B89, amino acid G1080-E1455; made in house; host or cells: E. coli BL21 (DE3), pET-21a
Description: FIG. 10: A: Kinetic parameters of MC-FN-010 and MC-FN-016 resulting from surface plasmon resonance analysis. Biotinylated human FN-67B89 was immobilized to streptavidin sensor to perform affinity determination of MC-FN-010 and MC-FN-016 using two-fold serial dilutions starting from 4000 nM. Kinetic parameters were calculated using a 1:1 Langmuir fitting model applied to generated sensorgrams. B: Kinetic parameters of AF680-(MC-FN-010)3 and AF680-(MC-FN-016)3 resulting from surface plasmon resonance with single cycle kinetic analysis. Biotinylated human FN-67B89 was immobilized to streptavidin chip to perform binding determination of AF680-(MC-FN-010)3 and AF680-(MC-FN-016)3 using two-fold serial dilution starting from 10 nM. Kinetic parameters were calculated using a 1:1 Langmuir fitting model applied to generated sensorgrams.
FIG. 15: SPR binding analysis of cystine-knot miniprotein variants to EDB. Kinetic parameters of EDB-specific cystine-knot miniprotein variants as measured by surface plasmon resonance analysis and calculated using a 1:1 Langmuir fitting model. Biotinylated human FN-67B89 was immobilized to a streptavidin sensor to determine affinity of DOTA-(MC-FN-016)3 using two-fold serial dilutions.
Binding kinetics of monomeric and trimeric cystine-knot miniprotein ligands to its target protein was determined using a Biacore T-100 device (GE Healthcare Life Science) with PBS-T as running buffer. For this, the biotinylated FN-67B89 protein (200-300 μg/mL) was captured by binding to a flow cell of a SA sensor chip (GE Healthcare Life Science). To analyze monomeric ligands an immobilized target density of maximum 750 response units (RU) was applied and for trimeric variants a RU of maximum 400 was aimed for. Binding analysis of monomeric ligands was performed using a multi cycle kinetic method with concentrations ranging from 50 to 4000 nM. A cycle started with an association period of 90 sec, followed by a dissociation period of 420 sec and a final regeneration step. Kinetic measurement was conducted applying a flow rate of 20 μL/min. Trimeric variants were analyzed under the same association and dissociation conditions, but using the single cycle kinetic measurement mode in a constant flow of […]. In this case the analyte concentration was between 1.25 nM to 10 nM. Binding kinetics and steady state analysis were calculated using a global kinetic fit model (1:1 Langmuir, Biacore T-100 Evaluation Software, GE Healthcare Life Science).

T1 sequence (P02751 32-2386 isoform P02751-1 limits assumed): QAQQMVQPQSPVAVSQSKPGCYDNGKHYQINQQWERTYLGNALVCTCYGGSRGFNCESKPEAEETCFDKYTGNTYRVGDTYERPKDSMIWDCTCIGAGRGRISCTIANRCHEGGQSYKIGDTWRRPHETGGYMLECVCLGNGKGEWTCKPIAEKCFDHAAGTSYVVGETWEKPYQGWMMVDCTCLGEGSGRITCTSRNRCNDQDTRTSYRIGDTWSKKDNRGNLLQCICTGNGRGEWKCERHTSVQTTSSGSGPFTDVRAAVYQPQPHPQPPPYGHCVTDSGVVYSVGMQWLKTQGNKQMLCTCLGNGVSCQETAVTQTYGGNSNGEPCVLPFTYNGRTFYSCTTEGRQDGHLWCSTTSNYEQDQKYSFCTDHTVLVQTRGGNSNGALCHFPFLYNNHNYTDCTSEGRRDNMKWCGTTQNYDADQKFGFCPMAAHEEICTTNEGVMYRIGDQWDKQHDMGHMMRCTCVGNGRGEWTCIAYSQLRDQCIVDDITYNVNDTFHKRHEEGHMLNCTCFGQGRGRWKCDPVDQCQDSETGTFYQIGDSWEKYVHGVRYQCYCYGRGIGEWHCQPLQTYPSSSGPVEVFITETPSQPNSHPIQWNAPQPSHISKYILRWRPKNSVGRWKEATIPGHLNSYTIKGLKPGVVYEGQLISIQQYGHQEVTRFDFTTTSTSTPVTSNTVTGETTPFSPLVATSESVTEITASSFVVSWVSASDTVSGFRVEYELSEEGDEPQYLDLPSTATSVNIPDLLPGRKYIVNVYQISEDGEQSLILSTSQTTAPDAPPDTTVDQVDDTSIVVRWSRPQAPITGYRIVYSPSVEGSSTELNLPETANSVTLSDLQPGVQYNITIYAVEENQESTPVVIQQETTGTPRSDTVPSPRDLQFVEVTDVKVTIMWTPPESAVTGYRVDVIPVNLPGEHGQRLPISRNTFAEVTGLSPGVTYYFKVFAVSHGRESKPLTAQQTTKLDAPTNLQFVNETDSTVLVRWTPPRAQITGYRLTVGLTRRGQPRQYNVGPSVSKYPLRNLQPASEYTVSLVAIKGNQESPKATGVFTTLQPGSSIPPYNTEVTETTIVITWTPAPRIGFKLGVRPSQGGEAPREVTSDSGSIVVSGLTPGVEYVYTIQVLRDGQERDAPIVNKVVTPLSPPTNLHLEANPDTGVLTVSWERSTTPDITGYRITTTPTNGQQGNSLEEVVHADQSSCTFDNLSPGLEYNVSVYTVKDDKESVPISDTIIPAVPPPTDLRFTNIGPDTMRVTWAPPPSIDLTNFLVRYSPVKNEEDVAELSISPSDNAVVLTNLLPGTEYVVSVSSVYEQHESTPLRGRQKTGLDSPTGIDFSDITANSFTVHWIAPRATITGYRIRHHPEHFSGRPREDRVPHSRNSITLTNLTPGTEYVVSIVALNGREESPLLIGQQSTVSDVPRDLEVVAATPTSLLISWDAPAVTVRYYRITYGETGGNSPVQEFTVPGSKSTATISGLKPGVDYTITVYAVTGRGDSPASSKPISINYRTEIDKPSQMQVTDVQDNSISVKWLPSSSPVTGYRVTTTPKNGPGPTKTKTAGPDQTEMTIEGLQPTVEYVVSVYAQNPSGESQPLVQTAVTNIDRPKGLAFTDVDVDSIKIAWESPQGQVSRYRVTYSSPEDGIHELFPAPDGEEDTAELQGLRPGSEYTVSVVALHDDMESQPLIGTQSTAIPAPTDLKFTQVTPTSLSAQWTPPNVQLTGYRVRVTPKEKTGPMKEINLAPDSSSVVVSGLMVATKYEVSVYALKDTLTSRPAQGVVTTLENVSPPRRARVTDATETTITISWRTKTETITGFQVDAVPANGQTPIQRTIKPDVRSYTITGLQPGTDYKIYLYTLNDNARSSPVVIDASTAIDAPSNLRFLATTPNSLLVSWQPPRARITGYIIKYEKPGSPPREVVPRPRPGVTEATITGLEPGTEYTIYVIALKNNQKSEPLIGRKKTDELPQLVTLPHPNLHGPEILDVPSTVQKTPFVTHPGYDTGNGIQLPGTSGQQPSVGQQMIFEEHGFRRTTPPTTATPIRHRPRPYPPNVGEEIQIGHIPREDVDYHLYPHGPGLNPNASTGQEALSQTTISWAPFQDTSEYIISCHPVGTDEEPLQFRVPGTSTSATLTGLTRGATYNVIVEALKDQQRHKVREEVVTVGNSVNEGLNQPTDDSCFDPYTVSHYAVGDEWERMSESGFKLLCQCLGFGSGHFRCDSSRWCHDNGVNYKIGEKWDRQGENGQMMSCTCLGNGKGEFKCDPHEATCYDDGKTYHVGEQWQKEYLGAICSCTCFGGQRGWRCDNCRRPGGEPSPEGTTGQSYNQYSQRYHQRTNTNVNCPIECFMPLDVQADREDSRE
T2 sequence (P02751 1080-1546): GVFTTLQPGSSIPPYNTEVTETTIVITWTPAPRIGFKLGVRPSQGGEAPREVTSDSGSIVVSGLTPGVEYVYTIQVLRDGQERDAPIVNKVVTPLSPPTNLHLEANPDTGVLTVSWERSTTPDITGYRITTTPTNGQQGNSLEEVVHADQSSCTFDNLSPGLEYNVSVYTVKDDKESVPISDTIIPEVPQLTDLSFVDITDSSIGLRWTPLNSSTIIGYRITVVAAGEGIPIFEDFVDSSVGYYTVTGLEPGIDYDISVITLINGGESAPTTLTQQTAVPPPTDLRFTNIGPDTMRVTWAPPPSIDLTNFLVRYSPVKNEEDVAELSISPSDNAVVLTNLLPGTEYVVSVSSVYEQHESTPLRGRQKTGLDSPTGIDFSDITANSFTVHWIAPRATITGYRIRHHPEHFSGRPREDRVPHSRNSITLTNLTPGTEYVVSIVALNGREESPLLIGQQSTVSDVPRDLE

Q: With “PMCTQRANRIAACRRDSDCTGACICRGNGYCG (Control peptide) [MC-FN-0115, reference compound]” as the substance, how does the “immunofluorescence staining of U-87 MG tumor sections” value [1] read?
A: no fluorescence signal at all

Q: What about the “fluorescence signal on normal mouse brain section” value [2] of the same substance?
A: No fluorescence signal

Q: With “WKCQPTNGYRIRCRRDSDCPGDCICRGNGYCG (cysteine pairing not given here) [MCopt 1.0-2]” as the substance, how does the “off-target and control protein signals” value [3] read?
A: medium to low

Q: Which results are given for “SVCKQANFVRIRLCRRDSDCPGACICRGNGYCG (cysteine pairing not given here) [MCopt 2.0-3]”?
A: off-target and control protein signals [3]: medium to low; background signals / unspecific binding towards FN-6789 off-target ([3]; dose-dependent saturation-binding ELISA, compared with EDB containing target proteins): high degree of unspecific binding

Q: Which “off-target and control protein signals” value [3] does the source give for “SVCAHYNTIRVRLCRRDSDCPGACICRGNGYCG (cysteine pairing not given here) [MCopt 2.0-2]” here?
A: medium to low

Q: Which results are given for “PMCTQRKNRIRLCRRDSDCTGACICRGNGYCG (cysteine pairing not given here) [MC-FN-010]”?
A: off-target and control protein signals [3]: medium to low; off-rates [4]: fast; binding affinity towards biotinylated FN-67B89 [4]: one digit micromolar range; binding towards FN-67B89 target protein ([4]; tag-free proteins, 50-1000 nM, data not shown): strong binding; fluorescence signal on normal mouse brain section [2]: No fluorescence signal

Q: Which “off-target and control protein signals” value [3] does the source give for “SVCKNVSIMRIRLCRRDSDCPGACICRGNGYCG (cysteine pairing not given here) [MCopt 2.0-1]” here?
A: medium to low

Q: How did the “off-target and control protein signals” value [3] turn out when “MCopt 1.0-1: enriched cystine-knot miniprotein clone without the R-I/V-R-(L) motif, SEQ ID NO: 10 (WTCTKKYPNTISCRRDSDCRVTCICRGNGYCG; EDB binding peptide)” was run?
A: high interaction

Q: With “PMCTQRANRIRLCRRDSDCTGACICRGNGYCG [MC-FN-016]” as the substance, how does the off-rates [4] read?
A: fast

Q: And the “binding affinity towards biotinylated FN-67B89” value [4]?
A: one digit micromolar range
